#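 1) Cells in 96-well plates. 2) Compound, 48 h, 5 concentrations. 3) Linear interpolation between surrounding doses. 4) Unreached endpoint = highest concentration. TGI: total growth inhibition.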
# Tests used:
# Experiment in all cases: NCI tumour cell line growth inhibition, 48 h
# U251 CNS = tested on: U251 CNS
# HT29 colon = tested on: HT29 colon
# NCI-H460 lung = tested on: NCI-H460 lung
# EKVX NSCLC = tested on: EKVX NSCLC
# HCT-116 colon = tested on: HCT-116 colon
# RPMI-8226 leukemia = tested on: RPMI-8226 leukemia
# HS 578T breast = tested on: HS 578T breast
# COLO 205 colon = tested on: COLO 205 colon
# SNB-19 CNS = tested on: SNB-19 CNS
# MDA-N = tested on: MDA-N
# OVCAR-4 ovarian = tested on: OVCAR-4 ovarian
# HOP-62 NSCLC = tested on: HOP-62 NSCLC
# PC-3 prostate = tested on: PC-3 prostate
# SK-MEL-2 melanoma = tested on: SK-MEL-2 melanoma
# DU-145 prostate = tested on: DU-145 prostate
# M14 melanoma = tested on: M14 melanoma
# SNB-75 CNS = tested on: SNB-75 CNS
# NCI-H522 lung = tested on: NCI-H522 lung
# MCF7 breast = tested on: MCF7 breast
# SF-268 CNS = tested on: SF-268 CNS
# OVCAR-3 ovarian = tested on: OVCAR-3 ovarian
# CAKI-1 renal = tested on: CAKI-1 renal
# HL-60(TB) leukemia = tested on: HL-60(TB) leukemia
# K-562 leukemia = tested on: K-562 leukemia
# NCI/ADR-RES ovarian = tested on: NCI/ADR-RES ovarian
# MALME-3M melanoma = tested on: MALME-3M melanoma
# KM12 colon = tested on: KM12 colon
# LOX IMVI melanoma = tested on: LOX IMVI melanoma
# SK-MEL-28 melanoma = tested on: SK-MEL-28 melanoma
# BT-549 breast = tested on: BT-549 breast
# A498 renal = tested on: A498 renal
# ACHN renal = tested on: ACHN renal
# HOP-92 NSCLC = tested on: HOP-92 NSCLC
# NCI-H226 lung = tested on: NCI-H226 lung
# RXF 393 renal = tested on: RXF 393 renal
# IGROV1 ovarian = tested on: IGROV1 ovarian
# HCT-15 colon = tested on: HCT-15 colon
# NCI-H23 lung = tested on: NCI-H23 lung
# T-47D breast = tested on: T-47D breast
# UO-31 renal = tested on: UO-31 renal
# OVCAR-5 ovarian = tested on: OVCAR-5 ovarian
# SK-OV-3 ovarian = tested on: SK-OV-3 ovarian
# MDA-MB-231 breast = tested on: MDA-MB-231 breast
# SN12C renal = tested on: SN12C renal
# TK-10 renal = tested on: TK-10 renal
# 786-0 renal = tested on: 786-0 renal
# MDA-MB-435 = tested on: MDA-MB-435
# SK-MEL-5 melanoma = tested on: SK-MEL-5 melanoma
# SW-620 colon = tested on: SW-620 colon
# SF-295 CNS = tested on: SF-295 CNS
# A549 NSCLC = tested on: A549 NSCLC
# UACC-62 melanoma = tested on: UACC-62 melanoma
# UACC-257 melanoma = tested on: UACC-257 melanoma
# SR leukemia = tested on: SR leukemia
# SF-539 CNS = tested on: SF-539 CNS
# CCRF-CEM leukemia = tested on: CCRF-CEM leukemia
# OVCAR-8 ovarian = tested on: OVCAR-8 ovarian
# MOLT-4 leukemia = tested on: MOLT-4 leukemia
# HCC-2998 colon = tested on: HCC-2998 colon
smiles,measurement,setting,value
NC(=O)NC(=O)c1cccc(NC(=O)CBr)c1,TGI,U251 CNS,58.2 nM
same,TGI,HT29 colon,< 0.0291 µM
same,TGI,NCI-H460 lung,166 nM
same,TGI,EKVX NSCLC,6.8 µM
same,TGI,HCT-116 colon,< 0.01 µM
same,TGI,RPMI-8226 leukemia,306 nM
same,TGI,HS 578T breast,< 0.0505 µM
same,TGI,COLO 205 colon,< 0.01 µM
same,TGI,SNB-19 CNS,13.1 µM
same,TGI,MDA-N,< 0.0226 µM
same,TGI,OVCAR-4 ovarian,3.11 µM
same,TGI,HOP-62 NSCLC,1290 nM
same,TGI,PC-3 prostate,1490 nM
same,TGI,SK-MEL-2 melanoma,1590 nM
same,TGI,DU-145 prostate,336 nM
same,TGI,M14 melanoma,549 nM
same,TGI,SNB-75 CNS,1690 nM
same,TGI,NCI-H522 lung,< 0.01 µM
same,TGI,MCF7 breast,1610 nM
same,TGI,SF-268 CNS,< 0.0275 µM
same,TGI,OVCAR-3 ovarian,24 nM
same,TGI,CAKI-1 renal,321 nM
same,TGI,HL-60(TB) leukemia,< 0.0207 µM
same,TGI,K-562 leukemia,1490 nM
same,TGI,NCI/ADR-RES ovarian,799 nM
same,TGI,MALME-3M melanoma,746 nM
same,TGI,KM12 colon,14.4 µM
same,TGI,LOX IMVI melanoma,193 nM
same,TGI,SK-MEL-28 melanoma,7.47 µM
same,TGI,BT-549 breast,1430 nM
same,TGI,A498 renal,532 nM
same,TGI,ACHN renal,1400 nM
same,TGI,HOP-92 NSCLC,1750 nM
same,TGI,NCI-H226 lung,67 nM
same,TGI,RXF 393 renal,1380 nM
same,TGI,IGROV1 ovarian,368 nM
same,TGI,HCT-15 colon,384 nM
same,TGI,NCI-H23 lung,1540 nM
same,TGI,T-47D breast,3.7 µM
same,TGI,UO-31 renal,1680 nM
same,TGI,OVCAR-5 ovarian,1890 nM
same,TGI,SK-OV-3 ovarian,963 nM
same,TGI,MDA-MB-231 breast,951 nM
same,TGI,SN12C renal,391 nM
same,TGI,TK-10 renal,281 nM
same,TGI,786-0 renal,< 0.0333 µM
same,TGI,MDA-MB-435,< 0.0358 µM
same,TGI,SK-MEL-5 melanoma,< 0.0184 µM
same,TGI,SW-620 colon,3.3 µM
same,TGI,SF-295 CNS,2700 nM
same,TGI,A549 NSCLC,7.6 µM
same,TGI,UACC-62 melanoma,908 nM
same,TGI,UACC-257 melanoma,623 nM
same,TGI,SR leukemia,152 nM
COc1ccc(C2SC(C)C(=O)N2c2nc(-c3nc(-c4ccc(Cl)cc4)cs3)cs2)cc1 (centres undefined),TGI,U251 CNS,> 100000 nM
same,TGI,HT29 colon,> 100 µM
same,TGI,NCI-H460 lung,> 100000 nM
same,TGI,EKVX NSCLC,> 100 µM
same,TGI,HCT-116 colon,> 100 µM
same,TGI,RPMI-8226 leukemia,> 100000 nM
same,TGI,HS 578T breast,> 100 µM
same,TGI,COLO 205 colon,> 100 µM
same,TGI,SNB-19 CNS,> 100 µM
same,TGI,MDA-N,> 100 µM
same,TGI,OVCAR-4 ovarian,> 100 µM
same,TGI,HOP-62 NSCLC,> 100000 nM
same,TGI,PC-3 prostate,> 100000 nM
same,TGI,M14 melanoma,> 100000 nM
same,TGI,SNB-75 CNS,> 100000 nM
same,TGI,NCI-H522 lung,> 100 µM
same,TGI,MCF7 breast,> 100000 nM
same,TGI,SF-268 CNS,> 100 µM
same,TGI,SF-539 CNS,> 100 µM
same,TGI,OVCAR-3 ovarian,> 100000 nM
same,TGI,CAKI-1 renal,> 100000 nM
same,TGI,HL-60(TB) leukemia,> 100 µM
same,TGI,CCRF-CEM leukemia,> 100 µM
same,TGI,OVCAR-8 ovarian,> 100 µM
same,TGI,K-562 leukemia,> 100000 nM
same,TGI,NCI/ADR-RES ovarian,> 100000 nM
same,TGI,MALME-3M melanoma,> 100000 nM
same,TGI,KM12 colon,> 100 µM
same,TGI,LOX IMVI melanoma,> 100000 nM
same,TGI,BT-549 breast,> 100000 nM
same,TGI,ACHN renal,> 100000 nM
same,TGI,HOP-92 NSCLC,> 100000 nM
same,TGI,NCI-H226 lung,> 100000 nM
same,TGI,RXF 393 renal,> 100000 nM
same,TGI,IGROV1 ovarian,> 100000 nM
same,TGI,HCT-15 colon,> 100000 nM
same,TGI,NCI-H23 lung,> 100000 nM
same,TGI,T-47D breast,> 100 µM
same,TGI,UO-31 renal,> 100000 nM
same,TGI,OVCAR-5 ovarian,> 100000 nM
same,TGI,SK-OV-3 ovarian,> 100000 nM
same,TGI,MDA-MB-231 breast,> 100000 nM
same,TGI,SN12C renal,> 100000 nM
same,TGI,TK-10 renal,> 100000 nM
same,TGI,786-0 renal,> 100 µM
same,TGI,MDA-MB-435,> 100 µM
same,TGI,SK-MEL-5 melanoma,> 100 µM
same,TGI,MOLT-4 leukemia,> 100 µM
same,TGI,SW-620 colon,> 100 µM
same,TGI,SF-295 CNS,> 100000 nM
same,TGI,HCC-2998 colon,> 100 µM
same,TGI,A549 NSCLC,> 100 µM
same,TGI,UACC-62 melanoma,> 100000 nM
same,TGI,UACC-257 melanoma,> 100000 nM
same,TGI,SR leukemia,> 100000 nM

# — PubChem BioAssay (NCI)
